MIC data for 3 compounds are collected here from patent publication US20190038714A1, “ANTI-INFLAMMATORY COMPOSITION COMPRISING CLAVASPIRIN PEPTIDE ANALOGUE AS EFFECTIVE INGREDIENT” (INDUSTRY-ACADEMIC COOPERATION FOUNDATION, CHOSUN UNIVERSITY, priority 2015, published 2019).

For assay [1], the system named is S. aureus MRSA 1635. Nature of the assay: microbe, parasite or virus in culture. Conditions: Staphylococcus aureus, 24 h.
Assay [2] has as its system S. aureus MRSA 5159. Nature of the assay: microbe, parasite or virus in culture. The settings on record: Staphylococcus aureus, 24 h.
The test system of assay [3] is S. aureus MRSA 2-122. The experiment in a line: microbe, parasite or virus in culture. Conditions: Staphylococcus aureus, 24 h.
Assay [4] concerns S. aureus MRSA 3511. Nature of the assay: microbe, parasite or virus in culture. Conditions: Staphylococcus aureus, 24 h.
The test system of assay [5] is S. aureus. The experiment in a line: microbe, parasite or virus in culture. Conditions: Staphylococcus aureus, 24 h.
Assay [6] has as its system S. aureus MRSA 5157. The experiment in a line: microbe, parasite or virus in culture. Conditions: Staphylococcus aureus, 24 h.
Assay [7] has as its system S. aureus MRSA 3-359. The experiment in a line: microbe, parasite or virus in culture. The settings on record: Staphylococcus aureus, 24 h.
Assay [8] concerns S. aureus MRSA 5156. The experiment in a line: microbe, parasite or virus in culture. Conditions: Staphylococcus aureus, 24 h.
The subject of assay [9] is S. aureus MRSA 3518. The experiment in a line: microbe, parasite or virus in culture. Conditions: Staphylococcus aureus, 24 h.
Assay [10] deals with S. aureus MRSA 4761. The experiment in a line: microbe, parasite or virus in culture. Conditions: Staphylococcus aureus, 24 h.
Assay [11] has as its system S. aureus MRSA 1870. The experiment in a line: microbe, parasite or virus in culture. The settings on record: Staphylococcus aureus, 24 h.
In assay [12] the test system is S. aureus MRSA 3126. The experiment in a line: microbe, parasite or virus in culture. Conditions: Staphylococcus aureus, 24 h.
Assay [13] concerns S. aureus MRSA 0027. The experiment in a line: microbe, parasite or virus in culture. Conditions: Staphylococcus aureus, 24 h.
Assay [14] relates to S. aureus MRSA 1630. Nature of the assay: microbe, parasite or virus in culture. Conditions: Staphylococcus aureus, 24 h.
Assay [15] has as its system S. aureus MRSA 5159. Conditions: 24 hours at 37° C.
The subject of assay [16] is S. aureus MRSA 5157. The settings on record: 24 hours at 37° C.
Assay [17] deals with S. aureus MRSA 1870. Conditions: 24 hours at 37° C.
The test system of assay [18] is S. aureus MRSA 1630. The settings on record: 24 hours at 37° C.
For assay [19], the system named is S. aureus MRSA 5156. Conditions: 24 hours at 37° C.
The subject of assay [20] is S. aureus MRSA 0027. The settings on record: 24 hours at 37° C.
Assay [21] has as its system S. aureus MRSA 1635. Conditions: 24 hours at 37° C.
The subject of assay [22] is S. aureus MRSA 3-359. Conditions: 24 hours at 37° C.
The test system of assay [23] is S. aureus MRSA 3518. The settings on record: 24 hours at 37° C.
The subject of assay [24] is S. aureus MRSA 2-122. Conditions: 24 hours at 37° C.
Assay [25] deals with S. aureus MRSA 3126. The settings on record: 24 hours at 37° C.
Assay [26] deals with S. aureus MRSA 4761. Conditions: 24 hours at 37° C.
The test system of assay [27] is S. aureus MRSA 3511. The settings on record: 24 hours at 37° C.
Assay [28] relates to S. aureus. Conditions: 24 hours at 37° C.

Converted amounts (≈) assume the structure as drawn. Read-outs that look alike come from different tables or passages of the source.

Consider `CC[C@H]1OC(=O)[C@H](C)[C@@H](O[C@H]2C[C@@](C)(OC)[C@@H](O)[C@H](C)O2)[C@H](C)[C@@H](O[C@@H]2O[C@H](C)C[C@H](N(C)C)[C@H]2O)[C@](C)(O)C[C@@H](C)C(=O)[C@H](C)[C@@H](O)[C@]1(C)O` [Erythromycin, erythromycin], for which the MIC was over 256 µM with S. aureus MRSA 1635 [1]; 16 µM (≈ 11.7 µg/mL) in the assay on S. aureus MRSA 5159 [2]; over 256 µM with S. aureus MRSA 2-122 [3]; over 256 µM with S. aureus MRSA 3511 [4]; 1 µM (≈ 0.734 µg/mL) in the assay on S. aureus [5]; 16 µM (≈ 11.7 µg/mL) against S. aureus MRSA 5157 [6]. In addition, the MIC in the assay on S. aureus MRSA 3-359 [7] was over 256 µM; in the assay on S. aureus MRSA 5156 [8], over 256 µM; in the assay with S. aureus MRSA 3518 [9], over 256 µM; in the assay on S. aureus MRSA 4761 [10], over 256 µM; in the assay with S. aureus MRSA 1870 [11], over 256 µM; in the assay with S. aureus MRSA 3126 [12] it was 128 µM (≈ 93.9 µg/mL). The MIC against S. aureus MRSA 0027 [13] and in the assay with S. aureus MRSA 1630 [14] was over 256 µM each time.

Consider `CC[C@H](C)[C@H](NC(=O)CN)C(=O)NCC(=O)N[C@@H](C)C(=O)N[C@H](C(=O)N[C@@H](CC(C)C)C(=O)N[C@@H](CCCCN)C(=O)N[C@H](C(=O)N[C@@H](CC(C)C)C(=O)N[C@H](C(=O)N[C@H](C(=O)NCC(=O)N[C@@H](CC(C)C)C(=O)N1CCC[C@H]1C(=O)N[C@@H](C)C(=O)N[C@@H](CC(C)C)C(=O)N[C@H](C(=O)N[C@@H](CO)C(=O)N[C@@H](Cc1c[nH]c2ccccc12)C(=O)N[C@H](C(=O)N[C@@H](CCCCN)C(=O)N[C@@H](CCCNC(=N)N)C(=O)N[C@@H](CCCCN)C(=O)N[C@@H](CCCNC(=N)N)C(=O)N[C@@H](CCC(N)=O)C(=O)N[C@@H](CCC(N)=O)C(N)=O)[C@@H](C)CC)[C@@H](C)CC)[C@@H](C)O)[C@@H](C)O)C(C)C)C(C)C` [Melittin, melittin], for which the MIC against S. aureus MRSA 5159 [15] stood at 8 µM (≈ 22.8 µg/mL); in the assay on S. aureus MRSA 5157 [16], 2 µM (≈ 5.69 µg/mL); against S. aureus MRSA 1870 [17], 4 µM (≈ 11.4 µg/mL); against S. aureus MRSA 1630 [18], 4 µM (≈ 11.4 µg/mL); against S. aureus MRSA 5156 [19], 4 µM (≈ 11.4 µg/mL); against S. aureus MRSA 0027 [20], 2 µM (≈ 5.69 µg/mL). Besides, the MIC in the assay on S. aureus MRSA 1635 [21] came out at 2 µM (≈ 5.69 µg/mL); in the assay on S. aureus MRSA 3-359 [22], 4 µM (≈ 11.4 µg/mL); against S. aureus MRSA 3518 [23], 4 µM (≈ 11.4 µg/mL); against S. aureus MRSA 2-122 [24], 4 µM (≈ 11.4 µg/mL); against S. aureus MRSA 3126 [25] it was 2 µM (≈ 5.69 µg/mL); in the assay on S. aureus MRSA 4761 [26], 4 µM (≈ 11.4 µg/mL). The MIC against S. aureus MRSA 3511 [27] was 4 µM (≈ 11.4 µg/mL).

Take gentamycin: the MIC against S. aureus MRSA 5159 [15] is 16 µM; in the assay with S. aureus MRSA 5157 [16], 16 µM; in the assay with S. aureus [28], 1 µM; with S. aureus MRSA 1870 [17], 16 µM; with S. aureus MRSA 1630 [18], 64 µM; in the assay on S. aureus MRSA 5156 [19], over 256 µM. Moreover, the MIC is 64 µM against S. aureus MRSA 0027 [20]; over 256 µM in the assay on S. aureus MRSA 1635 [21]; 64 µM against S. aureus MRSA 3-359 [22]; over 256 µM in the assay on S. aureus MRSA 3518 [23]; 128 µM in the assay on S. aureus MRSA 2-122 [24]; 32 µM with S. aureus MRSA 3126 [25]. Besides, the MIC was 32 µM in the assay on S. aureus MRSA 4761 [26] and over 256 µM against S. aureus MRSA 3511 [27].
